system: HT-22 cells; assay: Recovery of ATP production capability reduced by amyloid beta (luciferin/luciferase); assay type: cell-based; settings: compound 5 μM, amyloid beta 5 μM, 7 hours, amyloid beta vehicle control without drug = 0%
Procedure: (§1) Meanwhile, the compound represented by Formula 1 according to the present invention is evaluated through a test to determine recovery of mitochondrial functions damaged by amyloid beta, as described in the following Test Example. After the test, the results are shown in terms of the percentages of mitochondrial function disorder caused by amyloid beta. The degree of mitochondrial function disorder caused by amyloid beta is taken as 0% and the normal condition in the absence of amyloid beta is shown as 100%.
To a transparent 96-well plate, HT-22 cells are inoculated in a number of 10,000 per well one day before the test, followed by treatment with each compound to a final concentration of 5 μM per well. The cells are cultured at 37° C. for 10 minutes. Particularly, for each drug, two wells are treated with amyloid beta (5 μM) and the other two wells are treated with the vehicle control (5 μM DMSO). After the treatment, the cells are cultured at 37° C. for 7 hours. The cells treated with each drug are washed twice with PBS, lysed with Triton X-100 (1% in TSBT buffer) and agitated at room temperature for 5 minutes. […] is used to determine the protein amount of each well, and the same amount of protein taken from each well is added to a white 96-well plate. Then, […] (Molecular Probe, USA) for ATP determination containing d-luciferin and luciferase is added thereto and emission peaks generated from each of the wells are determined. After the determination, the peaks are normalized by taking the vehicle control to which amyloid beta is added without treatment with any drug as 0%.

Row | Compound | ATP Production Capability Recovery (%) (5 μM)
1 | Cc1cccc(C(C)(C)C)c1NC(=O)Cn1c(-c2ccccc2)nc2ccccc21 [Compound 16, N-(2-tert-butyl-6-methylphenyl)-2-(2-phenyl-1H-benzo[d]imidazol-1-yl)acetamide] | 55
2 | COc1ccc(OC)c(Cc2nc3ccccc3n2CC(=O)Nc2cc(C(C)(C)C)cc(C(C)(C)C)c2)c1 [Compound 17, N-(3,5-di-tert-butylphenyl)-2-(2-(2,5-dimethoxybenzyl)-1H-benzo[d]imidazol-1-yl)acetamide] | 46
3 | COc1ccc(OC)c(Cc2nc3ccccc3n2CC(=O)Nc2cc(Cl)cc(Cl)c2)c1 [Compound 18, N-(3,5-dichlorophenyl)-2-(2-(2,5-dimethoxybenzyl)-1H-benzo[d]imidazol-1-yl)acetamide] | 94
4 | Cc1ccc(C(C)C)cc1NC(=O)Cn1c(Cc2c(Cl)cccc2Cl)nc2ccccc21 [Compound 23, 2-(2-(2,6-dichlorobenzyl)-1H-benzo[d]imidazol-1-yl)-N-(5-isopropyl-2-methylphenyl)acetamide] | 95

system: HT-22 cells; assay: Improvement in mitochondrial membrane potential dropped by amyloid beta (JC-1 dye); assay type: cell-based; settings: compound 5 μM, amyloid beta 5 μM, 3 hours, JC-1 green:red ratio, amyloid beta damage = 0%, normal = 100%
Procedure: as §1
To a transparent 96-well plate, HT-22 cells are inoculated in a number of 30,000 per well one day before the test. On the next day, JC-1 dye (Stratagen, USA) is diluted with Opti-MEM containing no phenol red to a concentration of 7.5 μM, and the resultant dilution is used to treat the cells for 1 hour and 15 minutes. The dyed cells are washed twice with phosphate buffer solution (PBS), followed by treatment with each compound to a final concentration of 5 μM per well. Then, the cells are cultured at 37° C. for 10 minutes. Particularly, for each drug, two wells are treated with amyloid beta (5 μM) and the other two wells are treated with the vehicle control (5 μM DMSO). Then, the cells are cultured at 37° C. for 3 hours. The fluorescence intensity of each well is read by using a fluorescence plate reader at 485/535 nm (green/J-monomer) and 560/595 nm (red/J-aggregate). Then, the ratio of green:red is calculated and the results are normalized by taking the change of the ratio between addition of amyloid beta and no-addition of amyloid beta in the vehicle control non-treated with drugs as 100%.

Row | Compound | Improvement in Membrane Potential (%) (5 μM)
5 | COc1ccc(OC)c(-c2nc3ccccc3n2CC(=O)Nc2cc(C(C)C)ccc2C)c1 [Compound 1, 2-(2-(2,5-dimethoxyphenyl)-1H-benzo[d]imidazol-1-yl)-N-(5-isopropyl-2-methylphenyl)acetamide] | 41
6 | Cc1ccc(C(C)C)cc1NC(=O)Cn1c(-c2ccccc2)nc2ccccc21 [Compound 4, N-(5-isopropyl-2-methylphenyl)-(2-phenyl-1H-benzo[d]imidazol-1-yl)acetamide] | 91
7 | O=C(Cn1c(-c2cc(Cl)ccc2Cl)nc2ccccc21)Nc1cc(Cl)cc(Cl)c1 [Compound 5, N-(3,5-dichlorophenyl)-2-(2-(2,5-dichlorophenyl)-1H-benzo[d]imidazol-1-yl)acetamide] | 91
8 | Cc1cccc(C(C)(C)C)c1NC(=O)Cn1c(-c2cc(Cl)ccc2Cl)nc2ccccc21 [Compound 7, N-(2-tert-butyl-6-methylphenyl)-2-(2-(2,5-dichlorophenyl)-1H-benzo[d]imidazol-1-yl)acetamide] | 41
9 | Cc1cccc(C(C)(C)C)c1NC(=O)Cn1c(Cc2ccccc2)nc2ccccc21 [Compound 12, 2-(2-benzyl-1H-benzo[d]imidazol-1-yl)-N-(2-tert-butyl-6-methylphenyl)acetamide] | 38
10 | CC(C)(C)c1cc(NC(=O)Cn2c(-c3ccccc3)nc3ccccc32)cc(C(C)(C)C)c1 [Compound 13, N-(3,5-di-tert-butylphenyl)-2-(2-phenyl-1H-benzo[d]imidazol-1-yl)acetamide] | 86
11 | Cc1ccc(C(C)C)cc1NC(=O)Cn1c(-c2ccccc2)nc2ccccc21 [Compound 14, N-(5-isopropyl-2-methylphenyl)-2-(2-phenyl-1H-benzo[d]imidazol-1-yl)acetamide] | 73
12 | O=C(Cn1c(-c2ccccc2)nc2ccccc21)Nc1cc(Cl)cc(Cl)c1 [Compound 15, N-(3,5-dichlorophenyl)-2-(2-phenyl-1H-benzo[d]imidazol-1-yl)acetamide] | 69
13 | Cc1cccc(C(C)(C)C)c1NC(=O)Cn1c(-c2ccccc2)nc2ccccc21 [Compound 16, N-(2-tert-butyl-6-methylphenyl)-2-(2-phenyl-1H-benzo[d]imidazol-1-yl)acetamide] | 65
14 | COc1ccc(OC)c(Cc2nc3ccccc3n2CC(=O)Nc2cc(C(C)(C)C)cc(C(C)(C)C)c2)c1 [Compound 17, N-(3,5-di-tert-butylphenyl)-2-(2-(2,5-dimethoxybenzyl)-1H-benzo[d]imidazol-1-yl)acetamide] | 54
15 | COc1ccc(OC)c(Cc2nc3ccccc3n2CC(=O)Nc2cc(Cl)cc(Cl)c2)c1 [Compound 18, N-(3,5-dichlorophenyl)-2-(2-(2,5-dimethoxybenzyl)-1H-benzo[d]imidazol-1-yl)acetamide] | 68
16 | COc1ccc(OC)c(Cc2nc3ccccc3n2CC(=O)Nc2cc(C(C)C)ccc2C)c1 [Compound 19, 2-(2-(2,5-dimethoxybenzyl)-1H-benzo[d]imidazol-1-yl)-N-(5-isopropyl-2-methylphenyl)acetamide] | 81
17 | Cc1ccc(C(C)C)cc1NC(=O)Cn1c(Cc2ccc(Cl)c(Cl)c2)nc2ccccc21 [Compound 21, 2-(2-(3,4-dichlorobenzyl)-1H-benzo[d]imidazol-1-yl)-N-(5-isopropyl-2-methylphenyl)acetamide] | 57
18 | Cc1ccc(C(C)C)cc1NC(=O)Cn1c(Cc2c(Cl)cccc2Cl)nc2ccccc21 [Compound 23, 2-(2-(2,6-dichlorobenzyl)-1H-benzo[d]imidazol-1-yl)-N-(5-isopropyl-2-methylphenyl)acetamide] | 74
19 | CC(C)(C)c1cc(NC(=O)Cn2c(Cc3ccc(Cl)c(Cl)c3)nc3ccccc32)cc(C(C)(C)C)c1 [Compound 24, N-(3,5-di-tert-butylphenyl)-2-(2-(3,4-dichlorobenzyl)-1H-benzo[d]imidazol-1-yl)acetamide] | 42
20 | Cc1ccc(C(C)C)cc1NC(=O)Cn1c(-c2cc(Cl)ccc2Cl)nc2cc(Cl)ccc21 [Compound 26, 2-(5-chloro-2-(2,5-dichlorophenyl)-1H-benzo[d]imidazol-1-yl)-N-(5-isopropyl-2-methylphenyl)acetamide] | 60
21 | O=C(Cn1c(-c2cc(Cl)ccc2Cl)nc2cc(Cl)ccc21)Nc1cc(Cl)cc(Cl)c1 [Compound 27, 2-(5-chloro-2-(2,5-dichlorophenyl)-1H-benzo[d]imidazol-1-yl)-N-(3,5-dichlorophenyl)acetamide] | 77
22 | CN1CCC(NC(=O)c2ccc(Cn3c(Cc4c(Cl)cccc4Cl)nc4ccccc43)cc2)CC1 [Compound 33, 4-((2-(2,6-dichlorobenzyl)-1H-benzo[d]imidazol-1-yl)methyl)-N-(1-methylpiperidin-4-yl)benzamide] | 81
23 | O=C(NCCCN1CCCC1)c1ccc(Cn2c(Cc3c(Cl)cccc3Cl)nc3ccccc32)cc1 [Compound 35, 4-((2-(2,6-dichlorobenzyl)-1H-benzo[d]imidazol-1-yl)methyl)-N-(3-(pyrrolidin-1-yl)propyl)benzamide] | 79
24 | CN1CCN(CCCNC(=O)c2ccc(Cn3c(Cc4c(Cl)cccc4Cl)nc4ccccc43)cc2)CC1 [Compound 36, 4-((2-(2,6-dichlorobenzyl)-1H-benzo[d]imidazol-1-yl)methyl)-N-(3-(4-methylpiperazin-1-yl)propyl)benzamide] | 86
25 | O=C(NCCN1CCCCC1)c1ccc(Cn2c(Cc3c(Cl)cccc3Cl)nc3ccccc32)cc1 [Compound 38, 4-((2-(2,6-dichlorobenzyl)-1H-benzo[d]imidazol-1-yl)methyl)-N-(3-(piperidin-1-yl)ethyl)benzamide] | 89
26 | O=C(NCCCN1CCOCC1)c1ccc(Cn2c(Cc3c(Cl)cccc3Cl)nc3ccccc32)cc1 [Compound 39, 4-((2-(2,6-dichlorobenzyl)-1H-benzo[d]imidazol-1-yl)methyl)-N-(3-morpholinopropyl)benzamide] | 76
27 | CCN1CCCC1CNC(=O)c1ccc(Cn2c(CC(=O)Nc3cc(C(C)C)ccc3C)nc3ccccc32)cc1 (stereo not drawn) [Compound 41, N-((1-ethylpyrrolidin-2-yl)methyl)-4-((2-(2-(5-isopropyl-2-methylphenylamino)-2-oxoethyl)-1H-benzo[d]imidazol-1-yl)methyl)benzamide] | 68
28 | Cc1ccc(C(C)C)cc1NC(=O)Cc1nc2ccccc2n1Cc1ccc(C(=O)NCCCN(C)C)cc1 [Compound 42, N-(3-(dimethylamino)propyl)-4-((2-(2-(5-isopropyl-2-methylphenylamino)2-oxoethyl)-1H-benzo[d]imidazol-1-yl)methyl)benzamide] | 68
29 | CCN1CCCC1CNC(=O)c1ccc(CSc2nc3ccccc3n2CC(=O)Nc2cc(C(C)C)ccc2C)cc1 (stereo not drawn) [Compound 43, N-((1-ethylpyrrolidin-2-yl)methyl)-4-((1-(2-(5-isopropyl-2-methylphenylamino)2-oxoethyl)-1H-benzo[d]imidazol-2-ylthio)methyl)benzamide] | 70
30 | Cc1ccc(C(C)C)cc1NC(=O)Cc1nc2ccccc2n1Cc1ccc(C(=O)NCCCN2CCCCC2)cc1 [Compound 44] | 80
31 | Cc1ccc(C(C)C)cc1NC(=O)Cn1c(SCc2ccc(C(=O)NCCCN(C)C)cc2)nc2ccccc21 [Compound 45, N-(3-(dimethylamino)propyl)-4-((1-(2-(5-isopropyl-2-methylphenylamino)-2-oxoethyl)-1H-benzo[d]imidazol-2-ylthio)methyl)benzamide] | 59
32 | Cc1ccc(C(C)C)cc1NC(=O)Cn1c(SCc2ccc(C(=O)NCCCN3CCCCC3)cc2)nc2ccccc21 [Compound 46] | 67
33 | CN(C)C(=O)c1ccc(Cn2c(Cc3c(Cl)cccc3Cl)nc3ccccc32)cc1 [Compound 47, 4-((2-(2,6-dichlorobenzyl)-1H-benzo[d]imidazol-1-yl)methyl)-N,N-dimethylbenzamide] | 73

— patent US20140114067A1, “BENZIMIDAZOLE DERIVATIVES AS MITOCHONDRIAL FUNCTION MODULATORS” (KOREA INSTITUTE OF SCIENCE AND TECHNOLOGY, priority 2012, published 2014)
